Results published in patent publication US20070197590A1, “SUBSTITUTED DIPIPERIDINE CCR2 ANTAGONISTS” (priority 2006, published 2007).

Each molecule was assayed against T1, CCR2 (Homo sapiens, UniProt P41597) (assay: MCP-1 Receptor Binding Assay in THP-1 Cells). Conditions: THP-1 cells, 0.5 nM 125I labeled MCP-1, 2 hours at 30° C.; read-out: Inhibition of MCP-1 Binding IC50.
T1 construct: host or cells: THP-1 cells
T1 sequence (P41597 1-360 isoform P41597-2): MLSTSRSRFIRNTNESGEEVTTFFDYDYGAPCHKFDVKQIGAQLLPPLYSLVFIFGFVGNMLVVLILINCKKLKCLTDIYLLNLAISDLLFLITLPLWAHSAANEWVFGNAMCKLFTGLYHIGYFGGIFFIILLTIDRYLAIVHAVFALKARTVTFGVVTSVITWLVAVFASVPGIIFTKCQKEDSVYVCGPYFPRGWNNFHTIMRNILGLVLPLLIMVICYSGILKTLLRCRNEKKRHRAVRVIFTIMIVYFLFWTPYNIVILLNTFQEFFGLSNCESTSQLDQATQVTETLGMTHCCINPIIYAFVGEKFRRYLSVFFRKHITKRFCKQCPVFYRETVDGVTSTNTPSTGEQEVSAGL
Method: THP-1 cells were obtained from American Type Culture Collection (Manassas, Va., USA). The THP-1 cells were grown in RPMI-1640 supplemented with 10% fetal bovine serum in a humidified 5% CO2 atmosphere at 37° C. The cell density was maintained […].
THP-1 cells were incubated with 0.5 nM ^125, labeled MCP-1 (Perkin-Elmer Life Sciences, Inc. Boston, Mass.) in the presence of varying concentrations of either unlabeled MCP-1 (R & D Systems, Minneapolis, Minn.) or test compound for 2 hours at 30° C. in a 96 well plate. Cells were then harvested onto a filter plate, dried, and 20 μL of Microscint 20 was added to each well. Plates were counted in a TopCount NXT, Microplate Scintillation & Luminescence Counter (Perkin-Elmer Life Sciences, Inc. Boston, Mass.). Blank values (buffer only) were subtracted from all values and drug treated values were compared to vehicle treated values. 1 μM cold MCP-1 was used for nonspecific binding.
Table 1 lists IC50 values for inhibition of MCP-1 binding to CCR2 obtained for test compounds of the invention.

In order of falling IC50:
1. COc1ccc(/C=C/C(=O)N2CCC(O)(C(O)CN3CCC(c4ccc(C(F)(F)F)cc4)CC3)CC2)cc1OC (stereo not shown) [Compound 140]  15.4 µM
2. O=C(/C=C/c1cc(C(F)(F)F)cc(C(F)(F)F)c1)N1CCC(O)(C(O)CN2CCC(c3c[nH]c4ccc(N5CCOCC5)cc34)CC2)CC1 (stereo not shown) [Compound 150]  8.7 µM
3. O=C(Nc1cc(F)ccc1Cl)N1CCC(O)(C(O)CN2CCC(c3c[nH]c4ccc(F)cc34)CC2)CC1 (stereo not shown) [Compound 161]  8.3 µM
4. OC(CN1CCC(c2c[nH]c3ccc(F)cc23)CC1)C1(O)CCN(C(=S)Nc2ccc(Cl)c(Cl)c2)CC1 (stereo not shown) [Compound 162]  8.1 µM
5. COc1ccc(C2CCN(CC(O)C3CCN(C(=S)Nc4cc(F)cc(F)c4F)CC3)CC2)cc1 (stereo not shown) [Compound 109, 4-{1-hydroxy-2-[4-(4-methoxy-phenyl)-piperidin-1-yl]-ethyl}-piperidine-1-carbothioic acid (2,3,5-trifluoro-phenyl)-amide]  4.2 µM
6. O=C(OCc1ccccc1)N1CCC(O)(C(O)CN2CCC(c3ccc(Cl)cc3)CC2)CC1 (stereo not shown) [Compound 112, 4-{2-[4-(4-chloro-phenyl)-piperidin-1-yl]-1-hydroxy-ethyl}-4-hydroxy-piperidine-1-carboxylic acid benzyl ester]  3.7 µM
7. OC(CN1CCC(c2ccc(C(F)(F)F)cc2)CC1)C1(O)CCN(C(=S)Nc2ccc(Cl)c(Cl)c2)CC1 (stereo not shown) [Compound 144, 4-hydroxy-4-{1-hydroxy-2-[4-(4-trifluoromethyl-phenyl)-piperidin-1-yl]-ethyl}-piperidine-1-carbothioic acid (3,4-dichloro-phenyl)-amide]  3.4 µM
8. OC(CN1CCC(c2ccc(Cl)cc2)CC1)C1(O)CCN(C(=S)Nc2cc(F)cc(F)c2F)CC1 (stereo not shown) [Compound 166, 4-{2-[4-(4-chloro-phenyl)-piperidin-1-yl]-1-hydroxy-ethyl}-4-hydroxy-piperidine-1-carbothioic acid (2,3,5-trifluoro-phenyl)-amide]  3.1 µM
9. O=C(Nc1cc(F)cc(F)c1)N1CCC(O)(C(O)CN2CCC(c3ccc(F)cc3)CC2)CC1 (stereo not shown) [Compound 133, 4-{2-[4-(4-fluoro-phenyl)-piperidin-1-yl]-1-hydroxy-ethyl}-4-hydroxy-piperidine-1-carboxylic acid (3,5-difluoro-phenyl)-amide]  3 µM
10. Nc1ccc2[nH]cc(C3CCN(CC(O)C4CCN(C(=O)OCc5ccccc5)CC4)CC3)c2c1 (stereo not shown) [Compound 147, 4-{2-[4-(5-amino-1H-indol-3-yl)-piperidin-1-yl]-1-hydroxy-ethyl}-piperidine-1-carboxylic acid benzyl ester]  3 µM
11. O=C(Nc1ccc(F)c(F)c1)N1CCC(O)(C(O)CN2CCC(c3ccc(C(F)(F)F)cc3)CC2)CC1 (stereo not shown) [Compound 141, 4-hydroxy-4-{1-hydroxy-2-[4-(4-trifluoromethyl-phenyl)-piperidin-1-yl]-ethyl}-piperidine-1-carboxylic acid (3,4-difluoro-phenyl)-amide]  2.8 µM
12. COc1ccc(C2CCN(CC(O)C3CCN(C(=S)Nc4cccc(C#N)c4)CC3)CC2)cc1 (stereo not shown) [Compound 104, 4-{1-hydroxy-2-[4-(4-methoxy-phenyl)-piperidin-1-yl]-ethyl}-piperidine-1-carbothioic acid (3-cyano-phenyl)-amide]  2.7 µM
13. COc1ccc(C2CCN(CC(O)C3CCN(C(=S)Nc4cc(OC)cc(OC)c4)CC3)CC2)cc1 (stereo not shown) [Compound 111, 4-{1-hydroxy-2-[4-(4-methoxy-phenyl)-piperidin-1-yl]-ethyl}-piperidine-1-carbothioic acid (3,5-dimethoxy-phenyl)-amide]  2.6 µM
14. OC(CN1CCC(c2ccc(C(F)(F)F)cc2)CC1)C1(O)CCN(C(=S)Nc2cc(Cl)cc(Cl)c2)CC1 (stereo not shown) [Compound 145, 4-hydroxy-4-{1-hydroxy-2-[4-(4-trifluoromethyl-phenyl)-piperidin-1-yl]-ethyl}-piperidine-1-carbothioic acid (3,5-dichloro-phenyl)-amide]  1.9 µM
15. O=C(/C=C/c1cc(F)cc(F)c1)N1CCC(O)(C(O)CN2CCC(O)(c3ccc(F)cc3)CC2)CC1 (stereo not shown) [Compound 154]  1.8 µM
16. O=C(/C=C/c1cc(F)cc(F)c1)N1CCC(O)(C(O)CN2CCC(c3c[nH]c4ccc(N5CCOCC5)cc34)CC2)CC1 (stereo not shown) [Compound 149]  1.3 µM
17. O=C(/C=C/c1cc(F)c(F)c(F)c1)N1CCC(O)(C(O)CN2CCC(c3c[nH]c4ccc(N5CCOCC5)cc34)CC2)CC1 (stereo not shown) [Compound 148]  1.1 µM
18. O=C(Nc1ccc(Cl)c(Cl)c1)N1CCC(O)(C(O)CN2CCC(c3ccc(C(F)(F)F)cc3)CC2)CC1 (stereo not shown) [Compound 143, 4-hydroxy-4-{1-hydroxy-2-[4-(4-trifluoromethyl-phenyl)-piperidin-1-yl]-ethyl}-piperidine-1-carboxylic acid (3,4-dichloro-phenyl)-amide]  1 µM
19. OC(CN1CCC(c2c[nH]c3ccccc23)CC1)C1(O)CCN(C(=S)Nc2cc(Cl)cc(Cl)c2)CC1 (stereo not shown) [Compound 83, 4-hydroxy-4-{1-hydroxy-2-[4-(1H-indol-3-yl)-piperidin-1-yl]-ethyl}-piperidine-1-carbothioic acid (3,5-dichloro-phenyl)-amide]  0.86 µM
20. COc1ccc(C2CCN(CC(O)C3CCN(C(=O)Nc4cc(F)cc(C(F)(F)F)c4)CC3)CC2)cc1 (stereo not shown) [Compound 91, 4-{1-hydroxy-2-[4-(4-methoxy-phenyl)-piperidin-1-yl]-ethyl}-piperidine-1-carboxylic acid (3-fluoro-5-trifluoromethyl-phenyl)-amide]  0.81 µM
21. O=C(/C=C/c1cc(C(F)(F)F)cc(C(F)(F)F)c1)N1CCC(O)(C(O)CN2CCC(c3c[nH]c4ccccc34)CC2)CC1 (stereo not shown) [Compound 72]  0.7 µM
22. COc1ccc(C2CCN(CC(O)C3(O)CCN(C(=O)/C=C/c4ccc(Cl)cc4)CC3)CC2)cc1 (stereo not shown) [Compound 92]  0.48 µM

Same assay, conditions: test concentration of 25 μM; given where an IC50 value was not obtained; read-out: Inhibition of MCP-1 Binding, percent inhibition

In order of falling inhibition at 25 µM:
1. COc1ccc(C2CCN(CC(O)C3CCN(C(=O)Nc4cc(Cl)c(Cl)cc4F)CC3)CC2)cc1 (stereo not shown) [Compound 90, 4-{1-hydroxy-2-[4-(4-methoxy-phenyl)-piperidin-1-yl]-ethyl}-piperidine-1-carboxylic acid (4,5-dichloro-2-fluoro-phenyl)-amide]  87%
2. COc1ccc(C2CCN(CC(O)C3CCN(c4ccc([N+](=O)[O-])cn4)CC3)CC2)cc1 (stereo not shown) [Compound 127, 2-[4-(4-methoxy-phenyl)-piperidin-1-yl]-1-(5′-nitro-3,4,5,6-tetrahydro-2H-[1,2′]bipyridinyl-4-yl)-ethanol]  59%
3. O=C(OCc1ccccc1)N1CCC(O)(C(O)CN2CCC(c3ccc(C(F)(F)F)cc3)CC2)CC1 (stereo not shown) [Compound 126, 4-hydroxy-4-{1-hydroxy-2-[4-(4-trifluoromethyl-phenyl)-piperidin-1-yl]-ethyl}-piperidine-1-carboxylic acid benzyl ester]  55%
4. COc1ccc(C2CCN(CC(O)C3CCN(C(=O)Nc4ccc(C(F)(F)F)cc4Cl)CC3)CC2)cc1 (stereo not shown) [Compound 101, 4-{1-hydroxy-2-[4-(4-methoxy-phenyl)-piperidin-1-yl]-ethyl}-piperidine-1-carboxylic acid (2-chloro-4-trifluoromethyl-phenyl)-amide]  51%
5. OC(CN1CCC(c2c[nH]c3ccc(N4CCOCC4)cc23)CC1)C1(O)CCN(c2nccc(C(F)(F)F)n2)CC1 (stereo not shown) [Compound 122, 4-{1-hydroxy-2-[4-(5-morpholin-4-yl-1H-indol-3-yl)-piperidin-1-yl]-ethyl}-1-(4-trifluoromethyl-pyrimidin-2-yl)-piperidin-4-ol]  51%
6. O=C(OCc1ccccc1)N1CCC(O)(C(O)CN2CCC(c3ccc(F)cc3)CC2)CC1 (stereo not shown) [Compound 125, 4-{2-[4-(4-fluoro-phenyl)-piperidin-1-yl]-1-hydroxy-ethyl}-4-hydroxy-piperidine-1-carboxylic acid benzyl ester]  51%
7. COc1ccc(C2CCN(CC(O)C3CCN(C(=O)Nc4ccc5c(c4)OCO5)CC3)CC2)cc1 (stereo not shown) [Compound 100, 4-{1-hydroxy-2-[4-(4-methoxy-phenyl)-piperidin-1-yl]-ethyl}-piperidine-1-carboxylic acid benzo[1,3]dioxol-5-ylamide]  50%
8. COc1ccc(C2CCN(CC(O)C3(O)CCN(C(=S)Nc4cc(OC)cc(OC)c4)CC3)CC2)cc1 (stereo not shown) [Compound 119, 4-hydroxy-4-{1-hydroxy-2-[4-(4-methoxy-phenyl)-piperidin-1-yl]-ethyl}-piperidine-1-carbothioic acid (3,5-dimethoxy-phenyl)-amide]  43%
9. CC(C)(C)OC(=O)N1CCC(O)(C(O)CN2CCC(c3ccc(Cl)cc3)CC2)CC1 (stereo not shown) [Compound 146, 4-{2-[4-(4-chloro-phenyl)-piperidin-1-yl]-1-hydroxy-ethyl}-4-hydroxy-piperidine-1-carboxylic acid tert-butyl ester]  41%
